# Key:
# Human mTOR (FLAG-TOR) = target: T1, Human mTOR (FLAG-TOR) (Homo sapiens, UniProt P42345); test: Human mTOR kinase assay with purified enzyme, DELFIA format; format: biochemical
# T1 construct: FLAG
# How it was run: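 Purified FLAG-mTOR in HEPES pH 7.4 buffer with 10 mM MnCl2 was preincubated with inhibitor and reacted 2 h at room temperature with His6-S6K substrate, then stopped with EDTA/EGTA. Phospho-T389 S6K detected by DELFIA with Eu-labelled antibody (40 ng/mL) after plate capture; inhibition computed from signal.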
# PI3K [1] = target: T2, PI3K (Homo sapiens, UniProt P42336); test: Fluorescence polarization assay for PI3K; format: biochemical; details: PI3 Kinase α; read-out: PI3 Kinase α IC50
# T2 construct: PI3 Kinase α IC50; other: PI3 Kinase α; other: PI3 Kinase α isoform, fluorescence polarization
# T2 sequence (P42336 whole entry, canonical isoform): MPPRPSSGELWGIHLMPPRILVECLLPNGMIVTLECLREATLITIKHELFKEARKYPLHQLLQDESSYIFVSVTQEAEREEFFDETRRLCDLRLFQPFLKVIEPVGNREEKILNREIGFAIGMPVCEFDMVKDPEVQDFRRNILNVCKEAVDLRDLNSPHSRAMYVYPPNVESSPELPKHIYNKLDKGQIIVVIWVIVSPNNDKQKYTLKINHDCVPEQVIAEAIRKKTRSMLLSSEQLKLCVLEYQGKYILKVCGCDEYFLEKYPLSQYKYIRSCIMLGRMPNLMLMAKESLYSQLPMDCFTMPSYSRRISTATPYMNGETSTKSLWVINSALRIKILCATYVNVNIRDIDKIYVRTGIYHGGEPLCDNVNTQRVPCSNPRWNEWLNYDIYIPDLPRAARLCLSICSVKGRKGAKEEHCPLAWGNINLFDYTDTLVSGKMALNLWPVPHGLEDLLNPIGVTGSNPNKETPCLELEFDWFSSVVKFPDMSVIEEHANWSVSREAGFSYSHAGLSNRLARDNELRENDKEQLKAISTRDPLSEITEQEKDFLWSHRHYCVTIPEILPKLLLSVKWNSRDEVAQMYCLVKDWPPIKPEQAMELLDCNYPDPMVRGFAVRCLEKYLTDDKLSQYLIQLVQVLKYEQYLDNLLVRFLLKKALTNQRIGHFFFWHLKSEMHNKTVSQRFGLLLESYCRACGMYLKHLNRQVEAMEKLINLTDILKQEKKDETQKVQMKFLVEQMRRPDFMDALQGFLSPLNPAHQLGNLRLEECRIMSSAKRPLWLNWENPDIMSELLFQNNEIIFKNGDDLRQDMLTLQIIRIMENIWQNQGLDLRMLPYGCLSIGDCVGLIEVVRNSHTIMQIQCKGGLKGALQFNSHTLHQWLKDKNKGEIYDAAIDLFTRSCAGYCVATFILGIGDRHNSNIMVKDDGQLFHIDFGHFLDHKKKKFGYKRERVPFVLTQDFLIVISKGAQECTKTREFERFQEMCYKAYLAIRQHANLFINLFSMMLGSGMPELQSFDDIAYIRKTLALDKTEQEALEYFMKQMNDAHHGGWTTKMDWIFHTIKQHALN
# How it was run: (§1)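 PI3K was preincubated with compound (final DMSO 1%), and the reaction was started with PIP2/ATP substrate and run 30–60 min. It was stopped with a detector mix giving 10 nM red probe and 70 nM GST-GRP.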
# PI3K [2] = target: T3, PI3K (Homo sapiens, UniProt P48736); test: Fluorescence polarization assay for PI3K; format: biochemical; details: PI3 Kinase γ; read-out: PI3 Kinase γ IC50
# T3 construct: PI3 Kinase γ IC50; other: PI3 Kinase γ; other: PI3 Kinase γ isoform, fluorescence polarization
# T3 sequence (P48736 whole entry, canonical isoform): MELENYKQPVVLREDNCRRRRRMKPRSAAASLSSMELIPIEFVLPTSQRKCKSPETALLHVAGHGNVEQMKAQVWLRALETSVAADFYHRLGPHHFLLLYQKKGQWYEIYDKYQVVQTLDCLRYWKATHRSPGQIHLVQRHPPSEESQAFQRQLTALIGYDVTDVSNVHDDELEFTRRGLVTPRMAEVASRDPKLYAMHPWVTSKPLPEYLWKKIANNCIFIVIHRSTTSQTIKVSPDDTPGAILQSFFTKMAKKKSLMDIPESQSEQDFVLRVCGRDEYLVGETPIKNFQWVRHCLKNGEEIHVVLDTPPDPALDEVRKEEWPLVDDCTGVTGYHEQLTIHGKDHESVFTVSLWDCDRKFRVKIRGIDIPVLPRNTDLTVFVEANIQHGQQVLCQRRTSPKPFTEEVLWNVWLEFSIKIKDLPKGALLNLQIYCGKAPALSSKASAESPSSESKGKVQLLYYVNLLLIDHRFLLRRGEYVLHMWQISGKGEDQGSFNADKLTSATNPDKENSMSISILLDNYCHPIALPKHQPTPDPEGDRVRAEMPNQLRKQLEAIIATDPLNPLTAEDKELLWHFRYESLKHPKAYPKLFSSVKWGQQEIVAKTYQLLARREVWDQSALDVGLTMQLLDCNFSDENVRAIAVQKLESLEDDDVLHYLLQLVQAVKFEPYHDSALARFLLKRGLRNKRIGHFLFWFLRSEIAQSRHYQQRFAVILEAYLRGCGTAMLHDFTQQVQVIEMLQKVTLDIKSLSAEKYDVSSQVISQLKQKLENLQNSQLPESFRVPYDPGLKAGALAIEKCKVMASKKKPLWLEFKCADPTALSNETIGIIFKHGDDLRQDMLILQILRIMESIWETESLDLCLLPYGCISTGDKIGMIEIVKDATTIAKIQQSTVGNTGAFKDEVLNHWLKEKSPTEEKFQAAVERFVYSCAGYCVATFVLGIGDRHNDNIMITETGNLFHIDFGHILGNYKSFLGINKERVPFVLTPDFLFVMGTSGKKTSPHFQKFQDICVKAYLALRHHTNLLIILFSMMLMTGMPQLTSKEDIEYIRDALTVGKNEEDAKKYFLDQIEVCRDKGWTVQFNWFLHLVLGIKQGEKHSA
# How it was run: as §1
# prostate line LNCap = test: In vitro cell culture growth assay (MTS), LNCap; format: cell-based; details: Homo sapiens, LNCaP, 72 h, LNCap cells, three days after drug treatment
# How it was run: (§2)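 The readout was MTS dye metabolism at 490 nm, taken after 3-day drug exposure that began the day after seeding. Growth was expressed as percent of vehicle-treated wells in the same plate.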
# breast line MDA468 = test: In vitro cell culture growth assay (MTS), MDA468; format: cell-based; details: Homo sapiens, 72 h, MDA468 cells, three days after drug treatment
# How it was run: as §2
Structure (SMILES),IC50 (Human mTOR (FLAG-TOR)) [nM],IC50 (PI3K [1]) [nM],IC50 (PI3K [2]) [nM],IC50 (prostate line LNCap) [nM],IC50 (breast line MDA468) [nM]
"CN(C)CCCNC(=O)Nc1ccc(-c2nc(N3CC4CCC(C3)O4)c3cnn(C)c3n2)cc1 [Example 59, 1-[3-(dimethylamino)propyl]-3-{4-[1-methyl-4-(8-oxa-3-azabicyclo[3.2.1]oct-3-yl)-1H-pyrazolo[3,4-d]pyrimidin-6-yl]phenyl}urea]",100,1700,> 10000,2900,8800
"COC(=O)Nc1ccc(-c2nc(N3CC4CCC(C3)O4)c3cnn(C)c3n2)cc1 [Example 60, methyl {4-[1-methyl-4-(8-oxa-3-azabicyclo[3.2.1]oct-3-yl)-1H-pyrazolo[3,4-d]pyrimidin-6-yl]phenyl}carbamate]",28,3320,> 10000,1050,6800
"Cn1ncc2c(N3CC4CCC(C3)O4)nc(-c3cccc(O)c3)nc21 [Example 61, 3-[1-methyl-4-(8-oxa-3-azabicyclo[3.2.1]oct-3-yl)-1H-pyrazolo[3,4-d]pyrimidin-6-yl]phenol]",90,903,1840,1800,7600
"CC(C)OC(=O)N1CCC(n2ncc3c(N4CC5CCC(C4)O5)nc(-c4ccc(N)cc4)nc32)CC1 [Example 65, isopropyl 4-[6-(4-aminophenyl)-4-(8-oxa-3-azabicyclo[3.2.1]oct-3-yl)-1H-pyrazolo[3,4-d]pyrimidin-1-yl]piperidine-1-carboxylate]",46,4630,> 10000,1200,7000
"CCn1ncc2c(N3CC4CCC(C3)O4)nc(-c3cccc(O)c3)nc21 [Example 75, 3-[1-ethyl-4-(8-oxa-3-azabicyclo[3.2.1]oct-3-yl)-1H-pyrazolo[3,4-d]pyrimidin-6-yl]phenol]",27,1060,> 10000,350,1300
"CCn1ncc2c(N3CC4CCC(C3)O4)nc(-c3ccc4[nH]ccc4c3)nc21 [Example 76, 1-ethyl-6-(1H-indol-5-yl)-4-(8-oxa-3-azabicyclo[3.2.1]oct-3-yl)-1H-pyrazolo[3,4-d]pyrimidine]",29,6690,> 10000,1700,7000
"CNC(=O)Nc1ccc(-c2nc(N3CC4CCC(C3)O4)c3cnn(Cc4ccccc4)c3n2)cc1 [Example 77, 1-{4-[1-benzyl-4-(8-oxa-3-azabicyclo[3.2.1]oct-3-yl)-1H-pyrazolo[3,4-d]pyrimidin-6-yl]phenyl}-3-methylurea]",2.2,2100,> 10000,120,700
"CCNC(=O)Nc1ccc(-c2nc(N3CC4CCC(C3)O4)c3cnn(Cc4ccccc4)c3n2)cc1 [Example 78, 1-{4-[1-benzyl-4-(8-oxa-3-azabicyclo[3.2.1]oct-3-yl)-1H-pyrazolo[3,4-d]pyrimidin-6-yl]phenyl}-3-ethylurea]",2.6,> 10000,> 10000,170,1050
"O=C(Nc1ccncc1)Nc1ccc(-c2nc(N3CC4CCC(C3)O4)c3cnn(Cc4ccccc4)c3n2)cc1 [Example 79, 1-{4-[1-benzyl-4-(8-oxa-3-azabicyclo[3.2.1]oct-3-yl)-1H-pyrazolo[3,4-d]pyrimidin-6-yl]phenyl}-3-pyridin-4-ylurea]",1.9,1980,> 10000,20,150
"Nc1ccc(-c2nc(N3CC4CCC(C3)O4)c3cnn(C4CCC5(CC4)OCCO5)c3n2)cc1 [Example 81, 4-[1-(1,4-dioxaspiro[4.5]dec-8-yl)-4-(8-oxa-3-azabicyclo[3.2.1]oct-3-yl)-1H-pyrazolo[3,4-d]pyrimidin-6-yl]aniline]",54,> 10000,> 10000,1050,5800

# Further lines, with some results ahead:
IC50 (Human mTOR (FLAG-TOR)) [nM],IC50 (PI3K [1]) [nM],IC50 (PI3K [2]) [nM],IC50 (prostate line LNCap) [nM],Structure (SMILES),IC50 (breast line MDA468) [nM]
0.22,2020,> 10000,6,"CNC(=O)Nc1ccc(-c2nc(N3CC4CCC(C3)O4)c3cnn(C4CCN(C(=O)OC(C)C)CC4)c3n2)cc1 [Example 66, isopropyl 4-[6-{4-[(methylcarbamoyl)amino]phenyl}-4-(8-oxa-3-azabicyclo[3.2.1]oct-3-yl)-1H-pyrazolo[3,4-d]pyrimidin-1-yl]piperidine-1-carboxylate]",84
0.23,2460,9500,17,"CCNC(=O)Nc1ccc(-c2nc(N3CC4CCC(C3)O4)c3cnn(C4CCN(C(=O)OC(C)C)CC4)c3n2)cc1 [Example 67, isopropyl 4-[6-{4-[(ethylcarbamoyl)amino]phenyl}-4-(8-oxa-3-azabicyclo[3.2.1]oct-3-yl)-1H-pyrazolo[3,4-d]pyrimidin-1-yl]piperidine-1-carboxylate]",150
0.27,3150,> 10000,18,"CC(C)OC(=O)N1CCC(n2ncc3c(N4CC5CCC(C4)O5)nc(-c4ccc(NC(=O)NCCF)cc4)nc32)CC1 [Example 68, isopropyl 4-[6-(4-{[(2-fluoroethyl)carbamoyl]amino}phenyl)-4-(8-oxa-3-azabicyclo[3.2.1]oct-3-yl)-1H-pyrazolo[3,4-d]pyrimidin-1-yl]piperidine-1-carboxylate]",180
0.17,1530,11000,100,"CC(C)OC(=O)N1CCC(n2ncc3c(N4CC5CCC(C4)O5)nc(-c4ccc(NC(=O)NCCO)cc4)nc32)CC1 [Example 69, isopropyl 4-[6-(4-{[(2-hydroxyethyl)carbamoyl]amino}phenyl)-4-(8-oxa-3-azabicyclo[3.2.1]oct-3-yl)-1H-pyrazolo[3,4-d]pyrimidin-1-yl]piperidine-1-carboxylate]",195
0.44,924,9500,3,"CC(C)OC(=O)N1CCC(n2ncc3c(N4CC5CCC(C4)O5)nc(-c4ccc(NC(=O)NC5CC5)cc4)nc32)CC1 [Example 70, isopropyl 4-[6-{4-[(cyclopropylcarbamoyl)amino]phenyl}-4-(8-oxa-3-azabicyclo[3.2.1]oct-3-yl)-1H-pyrazolo[3,4-d]pyrimidin-1-yl]piperidine-1-carboxylate]",140
0.62,594,4910,20,"CC(C)OC(=O)N1CCC(n2ncc3c(N4CC5CCC(C4)O5)nc(-c4ccc(NC(=O)Nc5ccccc5)cc4)nc32)CC1 [Example 71, isopropyl 4-[4-(8-oxa-3-azabicyclo[3.2.1]oct-3-yl)-6-{4-[(phenylcarbamoyl)amino]phenyl}-1H-pyrazolo[3,4-d]pyrimidin-1-yl]piperidine-1-carboxylate]",170
0.2,324,2690,1.7,"CC(C)OC(=O)N1CCC(n2ncc3c(N4CC5CCC(C4)O5)nc(-c4ccc(NC(=O)Nc5cccnc5)cc4)nc32)CC1 [Example 72, isopropyl 4-[4-(8-oxa-3-azabicyclo[3.2.1]oct-3-yl)-6-{4-[(pyridin-3-ylcarbamoyl)amino]phenyl}-1H-pyrazolo[3,4-d]pyrimidin-1-yl]piperidine-1-carboxylate]",36
0.23,460,672,0.9,"CC(C)OC(=O)N1CCC(n2ncc3c(N4CC5CCC(C4)O5)nc(-c4ccc(NC(=O)Nc5ccncc5)cc4)nc32)CC1 [Example 73, isopropyl 4-[4-(8-oxa-3-azabicyclo[3.2.1]oct-3-yl)-6-{4-[(pyridin-4-ylcarbamoyl)amino]phenyl}-1H-pyrazolo[3,4-d]pyrimidin-1-yl]piperidine-1-carboxylate]",9
4.5,4480,9500,200,"COC(=O)Nc1ccc(-c2nc(N3CC4CCC(C3)O4)c3cnn(C4CCN(C(=O)OC(C)C)CC4)c3n2)cc1 [Example 74, isopropyl 4-[6-{4-[(methoxycarbonyl)amino]phenyl}-4-(8-oxa-3-azabicyclo[3.2.1]oct-3-yl)-1H-pyrazolo[3,4-d]pyrimidin-1-yl]piperidine-1-carboxylate]",6000
0.58,1710,> 10000,60,"CNC(=O)Nc1ccc(-c2nc(N3CC4CCC(C3)O4)c3cnn(C4CCN(C(=O)C(C)C)CC4)c3n2)cc1 [Example 82, 1-{4-[1-(1-isobutyrylpiperidin-4-yl)-4-(8-oxa-3-azabicyclo[3.2.1]oct-3-yl)-1H-pyrazolo[3,4-d]pyrimidin-6-yl]phenyl}-3-methylurea]",230
0.76,2350,> 10000,40,"CCNC(=O)Nc1ccc(-c2nc(N3CC4CCC(C3)O4)c3cnn(C4CCN(C(=O)C(C)C)CC4)c3n2)cc1 [Example 83, 1-ethyl-3-{4-[1-(1-isobutyrylpiperidin-4-yl)-4-(8-oxa-3-azabicyclo[3.2.1]oct-3-yl)-1H-pyrazolo[3,4-d]pyrimidin-6-yl]phenyl}urea]",240

# Source: patent US8129371B2, “Thienopyrimidine and pyrazolopyrimidine compounds and their use as mTOR kinase and PI3 kinase inhibitors” (Wyeth LLC, priority 2007, dated 2012)
